Test [1] deals with H188 (Epac1-based cAMP biosensor). As to the kind of experiment: FRET response of biosensor H188 to cAMP analogs and Epac inhibitors in HEK293-H188-C24 cells. It is filed as cell-based. The settings on record: for Effect on ΔFRET measured in response to 8-pCPT-2′-O-Me-cAMP-AM: Epac inhibitor co-applied. The text has this:
H188 contains the cAMP sensor Epac1 in which the full-length protein is truncated to remove the Disheveled, Egl-10, and Pleckstrin (DEP) membrane-targeting domain so that its expression is confined largely to the cytoplasm (Fig. 2a,b)[30]. T781A and F782A mutations introduced within the CDC25 homology domain disrupt guanine nucleotide exchange factor (GEF) activity so that binding of cAMP to H188 is not linked to downstream signaling events mediated by the Epac1 effector protein Rap1 GTPase (Fig. 2a)[30]. In H188 the Epac1 backbone is flanked by an mTurquoise2Δ FRET donor chromophore at the N-terminus, and tandem cp173 Venus-Venus FRET acceptor chromophores at the C-terminus (Fig. 2a). Binding of cAMP reduces FRET so that when exciting with 440 nm light, there is an increase of 485 nm (mTuquoise2Δ) and a decrease of 535 nm (cp173 Venus-Venus) emission fluorescence. This ΔFRET is measured as an increase of the 485/535 nm FRET ratio.
HEK293-H188-C24 cells stably expressing H188 were plated at 80% confluence on 96-well clear-bottom assay plates (Costar 3904, Corning, NY) coated with rat tail collagen (Collaborative Biomedical Products, Bedford, MA). HEK293 cells stably expressing select GPCRs were transduced for 16 hours with H188 virus at a density of ca. 60,000 cells/well under conditions in which the multiplicity of infection (m.o.i.) was equivalent to 25 viral particles per cell. For all assays, the culture media was then removed and replaced by 200 μl/well of a standard extracellular saline (SES) solution supplemented with 11 mM glucose and 0.1% BSA[31],[34]–[36]. The composition of the SES was (in mM): 138 NaCl, 5.6 KCl, 2.6 CaCl2, 1.2 MgCl2, 11.1 glucose, and 10 Hepes (295 mOsmol, pH 7.4). Real-time kinetic assays of FRET were performed using a FlexStation 3 microplate reader equipped with monochromators (Molecular Devices, Sunnyvale, CA). Excitation light was delivered at 435/9 nm (455 nm cut-off), and emitted light was detected at 485/15 nm (CFP) or 535/15 nm (YFP)[31],[34]–[36]. The emission intensities were the averages of 12 excitation flashes for each time point per well. Test solutions dissolved in SES were placed in V-bottom 96-well plates (Greiner Bio-One, Monroe, NC), and an automated pipetting procedure was used to transfer 50 μl of each test solution to each well of the assay plate containing monolayers of these cells. The 485/535 emission ratio was calculated for each well and the mean +/− s.d. values for 12 wells were averaged. To facilitate comparisons amongst different experiments, these FRET ratio values were normalized using baseline subtraction so that a y-axis value of 1 corresponds to the initial baseline FRET ratio, whereas a value of 2 corresponds to a doubling of the FRET ratio. The time course of the ΔFRET ratio was plotted after exporting data to Origin 8.0 (OriginLab, Northampton, MA). Origin 8.0 was also used for generation of Hill plots describing dose-response relationships.

For test [2], the target named is T1, human NPY2R (Homo sapiens, UniProt P49146).
T1 construct: 3xHA (own knowledge: 'TN' in the cDNA Resource Center clone ID denotes an N-terminal 3xHA tag); host or cells: HEK293-H188-C24 (transient transfection, pcDNA3.1)
T1 sequence (P49146 1-381): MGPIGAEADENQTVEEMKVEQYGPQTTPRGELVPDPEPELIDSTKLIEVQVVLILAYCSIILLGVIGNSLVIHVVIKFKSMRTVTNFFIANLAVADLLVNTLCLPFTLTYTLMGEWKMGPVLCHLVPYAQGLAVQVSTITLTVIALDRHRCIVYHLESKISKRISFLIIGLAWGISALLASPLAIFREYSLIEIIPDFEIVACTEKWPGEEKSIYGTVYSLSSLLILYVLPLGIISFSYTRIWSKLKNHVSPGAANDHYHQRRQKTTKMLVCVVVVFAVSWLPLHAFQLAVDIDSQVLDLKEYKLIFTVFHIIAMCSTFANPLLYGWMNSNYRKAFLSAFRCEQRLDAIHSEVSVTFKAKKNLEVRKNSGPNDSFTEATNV
As to the kind of experiment: FRET assay, inhibition of adenosine-stimulated cAMP production in HEK293-H188-C24 cells transfected with human NPY2R. Format: cell-based. Conditions: BIIE0246 300 nM; adenosine 2 μM. The procedure: (§1) Transient transfections were performed using Lipofectamine and Plus Reagent (Thermo Fisher) using methodology described previously by our laboratory for HEK293 cells. […] Plasmid encoding human NPY2R (I.D. NPYR20TN00) in pcDNA3.1 was from the University of Missouri-Rolla cDNA Resource Center (Rolla, MO). Individual clones of HEK293 cells stably expressing select FRET reporters were obtained by G418 antibiotic resistance selection, as described previously. Adenovirus for transduction of HEK293 cells with H188 was generated by a commercial vendor (ViraQuest, North Liberty, IA) using the shuttle vector pVQAd CMV K-NpA and the H188 plasmid originally created by Klarenbeek and co-workers[30].
(§2) HEK293-H188-C24 cells stably expressing H188 were plated at 80% confluence on 96-well clear-bottom assay plates (Costar 3904, Corning, NY) coated with rat tail collagen (Collaborative Biomedical Products, Bedford, MA). […] Real-time kinetic assays of FRET were performed using a FlexStation 3 microplate reader equipped with monochromators (Molecular Devices, Sunnyvale, CA). Excitation light was delivered at 435/9 nm (455 nm cut-off), and emitted light was detected at 485/15 nm (CFP) or 535/15 nm (YFP)[31],[34]–[36]. […]
Background: Cyclic AMP is a second messenger, typically raised through Gs and lowered through Gi signalling.

Test [3] deals with human GLP-1R. As to the kind of experiment: FRET cAMP assay in HEK293-GLP-1R cells (stable human GLP-1R) virally transduced with H188. Format: cell-based. Conditions: HEK293-GLP-1R cells transduced with H188. The procedure:
(§3) HEK293-H188-C24 cells stably expressing H188 were plated at 80% confluence on 96-well clear-bottom assay plates (Costar 3904, Corning, NY) coated with rat tail collagen (Collaborative Biomedical Products, Bedford, MA). HEK293 cells stably expressing select GPCRs were transduced for 16 hours with H188 virus at a density of ca. 60,000 cells/well under conditions in which the multiplicity of infection (m.o.i.) was equivalent to 25 viral particles per cell. For all assays, the culture media was then removed and replaced by 200 μl/well of a standard extracellular saline (SES) solution supplemented with 11 mM glucose and 0.1% BSA[31],[34]–[36]. The composition of the SES was (in mM): 138 NaCl, 5.6 KCl, 2.6 CaCl2, 1.2 MgCl2, 11.1 glucose, and 10 Hepes (295 mOsmol, pH 7.4). Real-time kinetic assays of FRET were performed using a FlexStation 3 microplate reader equipped with monochromators (Molecular Devices, Sunnyvale, CA). Excitation light was delivered at 435/9 nm (455 nm cut-off), and emitted light was detected at 485/15 nm (CFP) or 535/15 nm (YFP)[31],[34]–[36]. The emission intensities were the averages of 12 excitation flashes for each time point per well.

Test [4] relates to HEK293-H188-C24 cells, empty vector (EV). As to the kind of experiment: FRET cAMP assay in HEK293-H188-C24 cells transfected with negative control empty vector. It is filed as cell-based, human. The settings on record: GLP-1 and exendin-4 at 10 nM. The procedure: as §1, §2
The test system of test [5] is wild-type HEK293 cells. The test can be described thus: FRET cAMP assay in wild-type HEK293 cells transduced with H188 (negative control). Format: cell-based, human. Conditions: WT HEK293 lacking recombinant receptors, H188 virus; IBMX at 50 μM. The procedure:
as §3

Test [6] concerns adenosine A2B receptor. The test can be described thus: FRET cAMP assay, endogenous adenosine A2B receptors in untransfected HEK293-H188-C24 cells. Format: cell-based, human. Conditions: read-out: Kd for antagonist action versus adenosine; versus 4 μM adenosine. The procedure: HEK293 cells stably expressing select GPCRs were transduced for 16 hours with H188 virus at a density of ca. 60,000 cells/well under conditions in which the multiplicity of infection (m.o.i.) was equivalent to 25 viral particles per cell. For all assays, the culture media was then removed and replaced by 200 μl/well of a standard extracellular saline (SES) solution supplemented with 11 mM glucose and 0.1% BSA[31],[34]–[36]. […] Real-time kinetic assays of FRET were performed using a FlexStation 3 microplate reader equipped with monochromators (Molecular Devices, Sunnyvale, CA). […] The emission intensities were the averages of 12 excitation flashes for each time point per well.

In general, Kd refers to the constant that tells how readily two partners part at equilibrium.

Molecules are shown by their SMILES.

As to `CC(=O)Oc1ccc(CO)cc1` [4-Abn-OH, 4-acetoxybenzyl alcohol], in test [1], the “Effect on ΔFRET measured in response to forskolin” value is recorded as “not blocked”.
Take `N=C(N)NCCC[C@H](NC(=O)CC1(CC(=O)N2CCN(C3c4ccccc4NC(=O)c4ccccc43)CC2)CCCC1)C(=O)NCCn1c(=O)n(-c2ccccc2)n(-c2ccccc2)c1=O` (stereo partly shown) [BIIE0246]: the “Effect on inhibitory actions of EP45 (1,000 nM) and PYY(3–36) (300 nM)” value in test [2] is reported as “reduced the inhibitory actions”.
For `CC1CCc2c(cc(Br)c(F)c2Br)N1C=O` (stereo not shown) [CE3F4], in test [1], the “Effect on baseline FRET ratio when administered alone” value is “unaffected” and the “Effect on ΔFRET measured in response to 8-pCPT-2′-O-Me-cAMP-AM” value is “reduced”.
Consider `Nc1ncnc2c1ncn2[C@H]1CC[C@@H](CO)O1` [DDA], for which the “Effect on the cAMP-elevating action of GLP-1” value in test [3] is recorded as “suppressed the action of GLP-1”.
Regarding `Cc1ccc(S(=O)(=O)c2c(C)cc(C)cc2C)cc1` [ESI-05], in test [1], the “Effect on baseline FRET ratio when administered alone” value is on record as “unaffected” and the “Effect on ΔFRET measured in response to 8-pCPT-2′-O-Me-cAMP-AM” value is “without effect”.
As for `CC[C@H](C)[C@H](NC(=O)[C@H](Cc1ccccc1)NC(=O)[C@H](CCC(=O)O)NC(=O)[C@H](CCCCN)NC(=O)[C@H](C)NC(=O)[C@H](C)NC(=O)[C@H](CCC(N)=O)NC(=O)CNC(=O)[C@H](CCC(=O)O)NC(=O)[C@H](CC(C)C)NC(=O)[C@H](Cc1ccc(O)cc1)NC(=O)[C@H](CO)NC(=O)[C@H](CO)NC(=O)[C@@H](NC(=O)[C@H](CC(=O)O)NC(=O)[C@H](CO)NC(=O)[C@@H](NC(=O)[C@H](Cc1ccccc1)NC(=O)[C@@H](NC(=O)CNC(=O)[C@H](CCC(=O)O)NC(=O)[C@H](C)NC(=O)[C@@H](N)Cc1c[nH]cn1)[C@@H](C)O)[C@@H](C)O)C(C)C)C(=O)N[C@@H](C)C(=O)N[C@@H](Cc1c[nH]c2ccccc12)C(=O)N[C@@H](CC(C)C)C(=O)N[C@H](C(=O)N[C@@H](CCCCN)C(=O)NCC(=O)N[C@@H](CCCNC(=N)N)C(N)=O)C(C)C` [GLP-1, glucagon-like peptide-1], in test [4], the “Effect on levels of cAMP in empty vector cells” value is reported as “without effect”. Moreover, the “Effect on levels of cAMP in wild-type HEK293 cells” value in test [5] was “no such effect”.
On to `CCCn1c(=O)c2[nH]c(-c3cnn(Cc4cccc(C(F)(F)F)c4)c3)nc2n(CC)c1=O` [GS6201], for which, in test [6], the Kd worked out at 163 nM.

The values are drawn from PMC5830615 (Scientific Reports, 2018).
